Laboratory results taken from publication PMC5040251, “The Structure of Treponema pallidum Tp0751 (Pallilysin) Reveals a Non-canonical Lipocalin Fold That Mediates Adhesion to Extracellular Matrix Components and Interactions with Host Cells” (PLoS Pathogens, 2016).
Ends that are not written are not given here.

Key:
fibronectin [1] = test: Dose-dependent binding assay to immobilized fibronectin; conditions: plate binding to immobilized human plasma fibronectin; peptides serially diluted 1:2 from 40 to 0.625; absorbance 600 nm, three wells, representative of two independent experiments; non-linear regression, GraphPad Prism; read-out: Apparent Kd (Fn)
Protocol: (§1) Fig 3 Tp0751 lipocalin derived peptides directly bind host proteins. (A) Thirteen overlapping Tp0751 synthetic 24-mer peptides were evaluated for binding to immobilized fibrinogen, fibronectin, collagen type I, and collagen type IV. Average absorbance readings (600 nm) from three wells are presented with bars indicating standard error and the results are representative of two independent experiments. […] Average absorbance readings (600 nm) from three wells are presented with bars indicating standard error and the results are representative of two independent experiments. […] The strand colored in cyan reflects the overlap of p10 and p11. Color coded sequences of peptides p4, p6, p10, p10scr1, and p10scr2 are shown. Arginine residues in the p10 peptides are indicated by underlining.
(§2) Plasminogen-depleted human fibrinogen (Calbiochem) was purchased from VWR International. Laminin isolated from Engelbreth-Holm-Swarm murine sarcoma basement membrane and fibronectin isolated from human plasma were purchased from Sigma-Aldrich Canada Ltd. (Oakville, ON). Human collagen types I and IV (Rockland Immunochemicals, Inc.) were purchased from VWR International.
(§3) To test for binding of synthetic Tp0751 peptides p1-p13, p1scr, p6scr, p10scr1, and p10scr2 to the host proteins fibrinogen, fibronectin, laminin, collagen type I, and collagen type IV, initial binding assays were performed as described previously. For dose-dependent binding assays, recombinant proteins were serially diluted 1:2 from either 10 μM to 0.156 μm (Tp0751_78A used for crystallization and Tp0751_78 WT) or 40 μm to 0.625 μm (peptides p4, p6, p10, p11, p10scr1, and p10scr2). Average absorbance readings (600 nm) from three wells are presented with bars indicating standard error and the results are representative of two independent experiments. Plates were read at 600 nm with a BioTek enzyme-linked immunosorbent assay plate reader (Fisher Scientific, Ottawa, ON). All statistical analyses were performed using the Student’s two-tailed t-test. Non-linear regression curves were fitted and apparent dissociation constants (K d) were calculated using GraphPad Prism data analysis software (San Diego, CA).

fibronectin [2] = test: Initial (single point) binding screen of Tp0751 peptide library to immobilized fibronectin; parameters: species or system human; conditions: absorbance 600 nm, three wells, two independent experiments, Student's two-tailed t-test against non-binding peptides
Protocol: as §1, §2, §3

HUVEC monolayers = test: Peptide competitive inhibition assay: stationary adhesion of Tp0751-expressing B. burgdorferi (Bb-Tp0751) to HUVEC monolayers; assay type: cell-based, human; conditions: for Effect on adhesion of Bb-Tp0751 to HUVEC monolayers: HUVECs on matrigel pre-incubated with 0.1 μg peptide per well for 3 h at 37°C, peptide removed, bacteria 12 h at 36°C, GFP bacteria counted in ten FOV, 400x, compared with scrambled peptide
Protocol: Fig 5 Tp0751 peptide 10 inhibits adhesion of Tp0751-expressing B. burgdorferi to HUVEC monolayers. (A) Schematic showing the experimental design of the competitive inhibition assay. Confluent HUVEC monolayers seeded on artificial basement membrane were preincubated with synthetic Tp0751 peptides (p4, p6, p10, p11, p4scr, p6scr, and p10scr1) to allow for peptide-endothelial cell interactions. HUVECs were then co-incubated with parent (negative control) or Tp0751-expressing B. burgdorferi strains to assess the competitive inhibition capacity of the synthetic Tp0751 peptides. After washing to remove non-adherent bacteria, B. burgdorferi adhesion to HUVECs was quantified using fluorescence microscopy to count the number of adherent bacteria per field of view (FOV) at 400x magnification. (B) Bar graph illustrating the number of adherent B. burgdorferi per FOV. Mean counts ± SEM from ten FOV for each biological replicate are presented with standard error bars. For statistical analyses, attachment by strain Bb-Tp0751 to HUVEC monolayers preincubated with peptides p4, p6, and p10 was compared to the attachment of strain Bb-Tp0751 in the presence of corresponding scrambled peptides, using the Student’s two-tailed t-test. […] The parent and Bb-Tp0751 strains are indicated by clear white bars and striped colored bars, respectively. […] Mean counts ± SEM from ten FOV for each biological replicate are presented with standard error bars. Statistical analysis, was performed using the Student’s two-tailed t-test.
Human umbilical vein endothelial cells (HUVECs) pooled from multiple donors and purchased from Lonza (Allendale, NJ) were cultured in endothelial growth medium-2 (EGM-2) (Lonza) at 37°C in an atmosphere of 5% CO2, as per manufacturer’s instructions. B. burgdorferi strains were cultivated at 36°C in an atmosphere of 1.5% CO2 in BSK-II medium prepared in-house with appropriate antibiotics (100 μg/mL gentamycin, 200 μg/mL kanamycin).
Stationary adhesion assays were adapted from Szczepanski and colleagues and Cameron and colleagues. HUVECs (passage 2–3) were seeded in 4-well chamber slides (Nalge Nunc International, Rochester, NY), coated with 500 μg/mL phenol red-free matrigel (Corning, Tewksbury, MA) and grown 20 h at 37°C in 5% CO2 to form confluent monolayers. Synthetic Tp0751 peptides (p4, p6, p10, p11, […], p4scr, p6scr, and p10scr1) were diluted to 500 μg/ml in HEPES buffered saline solution (Lonza) and HUVECs were pre-incubated with 0.1 μg of Tp0751 peptide per well for 3 h at 37°C in 5% CO2. Peptide solutions were removed from HUVECs prior to the addition of bacteria. Borrelia burgdorferi strains were cultured in biological triplicate, and two days prior to the experiment, B. burgdorferi cultures were passaged to 6x10^5 cells/ml and grown for 48 h to reach a concentration of 2x10^7 cells/ml. Borrelia burgdorferi cultures were then centrifuged and resuspended in a 3:1 mixture of BSK-II:EGM-2 and 1.4x10^7 cells of each biological replicate were added to HUVECs in duplicate wells. […] Quantitation of B. burgdorferi adhesion to HUVECs was performed by counting GFP-expressing bacteria in ten fields of view (FOV) from duplicate wells for each biological replicate under 400X magnification on a Nikon 80i fluorescence microscope (Meridian Instrument Company, Inc., Kent, WA) fitted with a monochrome digital camera, a dark-field condenser, and fluorescein filter (Excelitas Technologies, Mississauga, ON). […]

HHHHHHGGAAQTHTQPPVQTAMRIALWNRA [p4]
Kd (fibronectin [1]): 2.4 ± 0.1 µM
Binding to fibronectin in initial binding screen (fibronectin [2]): statistically significant binding
Effect on adhesion of Bb-Tp0751 to HUVEC monolayers (HUVEC monolayers): did not alter adhesion

HHHHHHQGALQHLLAGLWIQTEISPNSGDI [p6]
Kd (fibronectin [1]): 4.5 ± 0.9 µM
Binding to fibronectin in initial binding screen (fibronectin [2]): statistically significant binding
Effect on adhesion of Bb-Tp0751 to HUVEC monolayers (HUVEC monolayers): did not alter adhesion

HHHHHHRKTVSFLTRNTAISSIRRRLEVTF [p10]
Kd (fibronectin [1]): 1.6 ± 0.2 µM
Binding to fibronectin in initial binding screen (fibronectin [2]): significant binding
Effect on adhesion of Bb-Tp0751 to HUVEC monolayers (HUVEC monolayers): significantly reduced binding
Peptide concentration giving statistically significant lower binding of Bb-Tp0751 to HUVEC monolayers compared with p8 (HUVEC monolayers; preincubation with 0-545 nM peptide, Student's two-tailed t-test, p≤0.005): ≥ 5.45 nM

HHHHHHSIRRRLEVTFESHEVIHVRAVEDV [p11]
Kd (fibronectin [1]): 5.8 ± 0.3 µM
Binding to fibronectin in initial binding screen (fibronectin [2]): statistically significant binding
Effect on adhesion of Bb-Tp0751 to HUVEC monolayers (HUVEC monolayers): did not alter adhesion
